According to PubChem BioAssay AID248 (DTP/NCI, 2004):
Several values for one entry are separate records, joined by “and”; a condition that tells them apart may be missing. Identical values can stand only once. Inconclusive results and toxic doses are left out. Cut-off read from the data, not from the text of the source: active = T/C of 150% or more; inactive = T/C below 125%.

Tested on: L1210 leukemia ip in BDF1 mice, survival T/C
Experiment: NCI In Vivo Anticancer Drug Screen. Data for tumor model L1210 Leukemia (intraperitoneal) in B6D2F1 (BDF1) mice
Conditions: endpoint: mean survival time, higher = longer survival
Outline: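 Mice bearing the transplanted tumor received compound or vehicle. Survival of the treated group was divided by that of the vehicle-treated control group to give the ratio.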

[1] = dose: 100.0 mg/kg/injection, schedule: Q01DX001 (ip), vehicle: saline
[2] = dose: 100.0 mg/kg/injection, schedule: Q04DX002 (ip), vehicle: saline
[3] = dose: 200.0 mg/kg/injection, schedule: Q04DX002 (ip), vehicle: saline
[4] = dose: 100.0 mg/kg/injection, schedule: Q01DX009 (ip), vehicle: Klucel (hydroxypropylcellulose) (HPC)
[5] = dose: 100.0 mg/kg/injection, schedule: Q04DX002 (ip), vehicle: Klucel (hydroxypropylcellulose) (HPC)
[6] = dose: 200.0 mg/kg/injection, schedule: Q01DX009 (ip), vehicle: Klucel (hydroxypropylcellulose) (HPC)
[7] = dose: 200.0 mg/kg/injection, schedule: Q04DX002 (ip), vehicle: Klucel (hydroxypropylcellulose) (HPC)
[8] = dose: 400.0 mg/kg/injection, schedule: Q01DX009 (ip), vehicle: Klucel (hydroxypropylcellulose) (HPC)
[9] = dose: 400.0 mg/kg/injection, schedule: Q04DX002 (ip), vehicle: Klucel (hydroxypropylcellulose) (HPC)

Measured: T/C

CN/N=C/c1ccc([N+](=O)[O-])cc1
inactive: dose: 25.0 mg/kg/injection, schedule: Q04DX002 (ip), vehicle: DMSO 96 % of control | dose: 50.0 mg/kg/injection, schedule: Q04DX002 (ip), vehicle: DMSO 96 % of control | dose: 100.0 mg/kg/injection, schedule: Q04DX002 (ip), vehicle: DMSO 96 % of control and 98 % of control | dose: 200.0 mg/kg/injection, schedule: Q04DX002 (ip), vehicle: DMSO 88 % of control

O=C(CC(NCc1ccccc1)C(=O)O)c1ccccc1 (stereo not drawn)
inactive: [1] 100 % of control | dose: 200.0 mg/kg/injection, schedule: Q01DX001 (ip), vehicle: saline 97 % of control | dose: 400.0 mg/kg/injection, schedule: Q01DX001 (ip), vehicle: saline 97 % of control

COC(=O)C(Br)C(Br)c1cc(OC)c(OC)c(OC)c1 (stereo not drawn)
inactive: dose: 100.0 mg/kg/injection, schedule: Q01DX001 (ip), vehicle: carboxymethylcellulose (CMC) 89 % of control | dose: 200.0 mg/kg/injection, schedule: Q01DX001 (ip), vehicle: carboxymethylcellulose (CMC) 93 % of control | dose: 400.0 mg/kg/injection, schedule: Q01DX001 (ip), vehicle: carboxymethylcellulose (CMC) 103 % of control

CC(C)(C)CNC(C)(C)C
inactive: dose: 5.0 mg/kg/injection, schedule: Q01DX001 (ip), vehicle: saline 109 % of control | dose: 10.0 mg/kg/injection, schedule: Q01DX001 (ip), vehicle: saline 103 % of control | dose: 20.0 mg/kg/injection, schedule: Q01DX001 (ip), vehicle: saline 100 % of control | dose: 40.0 mg/kg/injection, schedule: Q01DX001 (ip), vehicle: saline 103 % of control | dose: 50.0 mg/kg/injection, schedule: Q04DX002 (ip), vehicle: saline 112 % of control | dose: 80.0 mg/kg/injection, schedule: Q01DX001 (ip), vehicle: saline 105 % of control | [2] 104 % of control | [3] 95 % of control

COc1cc(/C=N/NC(=O)Cc2cccc3ccccc23)ccc1O
inactive: [4] 109 % of control | [5] 107 % of control | [6] 93 % of control | [7] 104 % of control | [8] 98 % of control | [9] 96 % of control

O=C1CSSCC(=O)NCCN1
inactive: [5] 93 % of control and 96 % of control | [7] 93 % of control and 96 % of control | [9] 93 % of control and 96 % of control

C[CH2][Ge]1([CH2]C)[CH2]CC2(C[CH2]1)NC(=O)N(CCCN(C)C)C2=O
inactive: [2] 100 % of control | [3] 105 % of control

N#Cc1ncc(-c2ccc(Cl)cc2)nc1Cl
inactive: dose: 100.0 mg/kg/injection, schedule: Q01DX009 (ip), vehicle: saline 105 % of control | dose: 100.0 mg/kg/injection, schedule: Q04DX003 (ip), vehicle: saline 91 % of control | dose: 200.0 mg/kg/injection, schedule: Q01DX009 (ip), vehicle: saline 113 % of control | dose: 200.0 mg/kg/injection, schedule: Q04DX003 (ip), vehicle: saline 93 % of control | dose: 400.0 mg/kg/injection, schedule: Q04DX003 (ip), vehicle: saline 95 % of control

CCNCC(=O)N(N=O)C(=O)OCC
inactive: dose: 75.0 mg/kg/injection, schedule: Q01DX001 (ip), vehicle: steriod suspending solution 110 % of control | dose: 150.0 mg/kg/injection, schedule: Q01DX001 (ip), vehicle: steriod suspending solution 102 % of control

CCOC(=O)CCSC(C)(C)C(=O)OCC
inactive: [4] 97 % of control | [6] 101 % of control | [8] 100 % of control

Cc1ccc(S(=O)(=O)OCCN(CCOS(=O)(=O)c2ccc(C)cc2)c2ccccc2)cc1
inactive: dose: 7.5 mg/kg/injection, schedule: Q01DX015 (ip), vehicle: carboxymethylcellulose (CMC) 109 % of control | dose: 50.0 mg/kg/injection, schedule: Q01DX001 (ip), vehicle: saline 117 % of control | dose: 60.0 mg/kg/injection, schedule: Q01DX015 (ip), vehicle: carboxymethylcellulose (CMC) 122 % of control | [1] 115 % of control
